The text below walks through data of PubChem BioAssay (NCI).

What all share (assay): inhibition of tumour cell growth, NCI panel, 48 h
Assay [1] concerns HOP-62 NSCLC.
Assay [2] deals with OVCAR-8 ovarian.
Assay [3] concerns NCI-H226 lung.
The test system of assay [4] is RXF 393 renal.
Assay [5] deals with LOX IMVI melanoma.
In assay [6] the test system is MALME-3M melanoma.
In assay [7] the test system is OVCAR-3 ovarian.
Assay [8] relates to NCI-H460 lung.
Assay [9] relates to SF-539 CNS.
Assay [10] has as its system TK-10 renal.

Molecules are shown by their SMILES. Where “and” joins values, the source holds several entries; their conditions need not be identical. Identical values can stand only once.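 A five-concentration, 48-hour dose response in 96-well plates underlies each endpoint, interpolated linearly between surrounding concentrations. At the GI50, growth is halved. The concentration for full growth arrest is given as TGI.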

Take `C/C(=N\NC(=S)Nc1ccc([N+](=O)[O-])cc1S(=O)(=O)O)c1ccccn1`: the TGI in assay [1] was > 100 µM; in [2], > 100 µM; in assay [3], > 100 µM; in assay [4], 86.1 µM; in [5], > 100 µM; in assay [6] it was > 100 µM. Further, the TGI in [7] was 72.7 µM; in assay [8] it was 69 µM; in assay [9], > 100 µM; in [10], > 100 µM.

On to `O=C(O)c1oc2ccc([N+](=O)[O-])c3c2c1CCC3`, for which the TGI in assay [1], in assay [2], in [3], in [4], in assay [5] and in assay [6] was > 100 µM throughout. In addition, the TGI in assay [7], in [8], in [9] and in assay [10] was > 100 µM each time.

On to `COc1ccccc1OCC(O)CO` (stereo unspecified), for which the GI50 in assay [1] is > 100 µM; in assay [2], > 100 µM; in [3], > 100 µM; in assay [4] it was > 100000 nM; in [5], > 100 µM; in [6] it was > 100 µM. Moreover, the GI50 in assay [7] is > 100000 nM; in assay [8], > 100 µM; in assay [9], > 100 µM; in assay [10] it was > 100 µM. The TGI in assay [1], in assay [2], in [3], in assay [4], in assay [5] and in assay [6] was > 100 µM in each case. Moreover, the TGI in assay [7], in assay [8], in assay [9] and in [10] was > 100 µM throughout.

With `Cc1ccc(S(=O)(=O)ON=C2CC(c3ccccc3)N(C)C(c3ccccc3)C2)cc1` (stereo unspecified), the TGI in [1] is 68.4 µM and 98.2 µM; in [2], 35.6 µM and 36.5 µM; in [3], 70.1 µM and 64 µM; in assay [4] it was 48 µM and 71.6 µM; in [5], 27.5 µM and 26.9 µM; in [6], 78.1 µM and 66.4 µM. In addition, the TGI was 47.8 µM and 49.4 µM in [7]; 44.1 µM and 52.7 µM in assay [8]; 36 µM in assay [9]; 49.1 µM and 48.5 µM in assay [10].

As for `CC(Cl)CC(=O)Nc1ccc2c(c1)oc(=O)c1cc(NC(=O)CC(C)Cl)ccc12` (stereo unspecified), the GI50 is 11.5 µM in assay [1]; 10.4 µM in [2]; 23.6 µM in assay [3]; 762 nM in [4]; 4.46 µM in [5]; 4.28 µM in assay [6]. Besides, the GI50 in assay [7] is 14300 nM; in [8], 13.7 µM; in assay [9] it was 14.4 µM; in [10], 10.1 µM. The TGI in assay [1] was 28.2 µM; in assay [2] it was 28.8 µM; in assay [3], > 100 µM; in [4], 22 µM; in assay [5], 21.9 µM; in assay [6] it was 21.3 µM. In addition, the TGI in assay [7] is 31.1 µM; in assay [8] it was 40.9 µM; in [9], 33.1 µM; in assay [10], 23.8 µM.

In the case of `CCCC/C(C)=N/NC(N)=S`, the TGI in [1], in [2], in [3], in assay [4], in [5] and in [6] was > 100 µM each time. Besides, the TGI in assay [7], in [8], in assay [9] and in assay [10] was > 100 µM in each case.

Regarding `CCn1cc(C2NC(=O)c3cc(F)ccc3N2)c2cccc(Cl)c21` (stereo unspecified), the GI50 in [1] is 0.485 µM; in assay [2], 0.408 µM; in assay [3], 0.664 µM; in assay [4], 149 nM; in [5], 0.374 µM; in [6], 2.55 µM. Besides, the GI50 in [7] is 100 nM; in assay [8], 0.32 µM; in assay [9], 0.177 µM; in [10], > 100 µM. Further, the TGI is > 100 µM in assay [1]; > 100 µM in [2]; 9.63 µM in assay [3]; 0.674 µM in assay [4]; > 100 µM in assay [5]; > 100 µM in [6]. Also, the TGI is 0.596 µM in assay [7], > 100 µM in assay [8], 0.683 µM in assay [9] and > 100 µM in [10].

For `COc1ccccc1OCC(COC(=O)Nc1ccc(C)cc1)OC(=O)Nc1ccc(C)cc1` (stereo unspecified), the TGI was > 100 µM in assay [1]; 38.4 µM in assay [2]; 67.5 µM in [3]; 20.2 µM in [4]; 30.2 µM in [5]; 48.3 µM in assay [6]. For the same compound, the TGI stood at 33.9 µM in assay [7], 30.3 µM in assay [8], 37.7 µM in assay [9] and 47 µM in [10].

Take `NC(=O)c1ccc(NC(=O)c2oc3ccccc3c2-c2cnn(-c3ccccc3)c2)cc1`: the GI50 in [1] is 3.33 µM; in [2], > 100 µM; in assay [3], 2.98 µM; in [4] it was 1330 nM; in assay [5] it was > 100 µM; in assay [6], > 100 µM. The results for the GI50 in assay [8], in assay [9] and in [10] were > 100 µM, > 100 µM and > 23.3 µM, respectively. The TGI was 46.6 µM in assay [1]; > 100 µM in assay [2]; > 100 µM in assay [3]; 6.03 µM in [4]; > 100 µM in [5]; > 100 µM in assay [6]. For the same compound, the TGI in assay [8], in [9] and in [10] was > 100 µM each time.

Turning to `C=C1C(=O)O[C@H]2[C@H](OC(C)=O)[C@@H](C)CCC/C(C)=C/CC[C@]3(CO3)[C@H](O)C[C@@H]12`, the GI50 in assay [2] is 3.06 µM; in assay [3], 16.3 µM; in [4], 3160 nM; in assay [5], 2.07 µM; in assay [6], 2.69 µM; in assay [7] it was 2360 nM. Also, the GI50 is 5.35 µM in [8], 3.2 µM in assay [9] and 1.83 µM in [10]. Besides, the TGI in [2] worked out at 10.8 µM; in assay [3], 38.6 µM; in assay [4], 11.7 µM; in assay [5], 4.75 µM; in [6], 12.3 µM; in assay [7], 5.69 µM. The TGI was found to be 17.5 µM in assay [8], 9.27 µM in assay [9] and 4.62 µM in [10].
